These substances were tested on Male NMRI (SPF) mice fed a low-iron diet (assay: Fe utilization in iron-deficient mouse model). Conditions: male NMRI mice on low-iron diet (approx. 5 ppm iron); 2 mg iron/kg body weight/day by stomach tube, days 1-5 and 8-12; utilization on day 15 calculated from hemoglobin and body weight increase versus control group.
Assay type: in vivo
Description: The excellent Fe utilizations that can be accomplished through the Fe complexes according to the invention were measured by means of the following mouse model.
Male NMRI (SPF) mice (approximately 3 weeks old) were fed a low-iron diet (approx. 5 ppm iron) for approximately 3 weeks. The iron complexes were then administered to them by means of a stomach tube (2 mg iron/kg body weight/day) for 2 times 5 days, with an interruption of 2 days (days 1-5 and 8-12). Utilization on day 15 was calculated from the hemoglobin increase and the body weight increase in accordance with the formula
[formula] • 0.07=Factor for 70 ml blood per kg body weight (BW) • 0.0034=Factor for 0.0034 g Fe/g Hb • Hb1=Hemoglobin level (g/I) on day 1 • Hb2(3)=Hemoglobin level (g/I) on day 8 (or 15) • BW4=body weight (g) on day 1 • BW9(14)=body weight (g) on day 8 (or 15) • Hb1 Control=average hemoglobin level (g/I) on day 1 in the control group, • Hb2(3) Control=average hemoglobin level (g/I) on day 8 (or 15) in the control group, • BW4 Control=average body weight (g) on day 1 in the control group, • BW9(14) Control=average body weight (g) on day 8 (or 15) in the control group, • Fe Dos.=entire administered iron (mg Fe) over 5 or 10 days, • Fe ut.=(Hb2(3)*BW9(14)-Hb1*BW4)*0.07*0.0034 (mg Fe) Δ Utilization=Fe tot. utilized (examined group)—Fe ut. Control group, utilized from food, (mg Fe)

| Substance | Utilization n 15 d (abs. %) |
| --- | --- |
| Tris(3-oxo-2-(piperidin-1-ylcarbonyl)butanenitrile)-iron(III) Complex [Example 5] | 61 |
| Tris(3-oxoheptaneamide)-iron(III) Complex [Example 10] | 45 |
| Tris(3-oxopentaneamide)-iron(III) Complex [Example 18] | 81 |
| Tris(N,N-dibutyl-3-oxobutaneamide)-iron(III) Complex [Example 8] | 69 |
| Tris(N,N-dimethyl-3-oxoheptaneamide)-iron(III) Complex [Example 17] | 48 |
| Tris(N,N-dimethyl-3-oxopentaneamide)-iron(III) Complex [Example 19] | 73 |
| Tris(N-butyl-3-oxobutaneamide)-iron(III) Complex [Example 7] | 41 |
| Tris(N-methyl-3-oxoheptaneamide)-iron(III) Complex [Example 11] | 75 |
| Tris-(1-(2,6-dimethylmorpholin-4-yl]butane-1,3-dione)-iron(III)-complex [Example 59] | 80 |
| Tris-(1-(3-hydroxypiperidin-1-yl)butane-1,3-dione)-iron(III)-complex [Example 47] | 61 |
| Tris-(1-(4-Hydroxypiperidin-1-yl)-4-methylpentane-1,3-dione)-iron(III)-complex [Example 64] | 79 |
| Tris-(1-(4-hydroxypiperidin-1-yl)-butane-1,3-dione)-iron(II) complex [Example 14] | 68 |
| Tris-(1-(4-hydroxypiperidin-1-yl)pentane-1,3-dione)-iron(III)-complex [Example 61] | 73 |
| Tris-(1-(morpholin-4-yl)butane-1,3-dione)-iron(III)-complex [Example 33] | 69 |
| Tris-(1-(morpholin-4-yl)pentane-1,3-dione)-iron(III)-complex [Example 62] | 68 |
| Tris-(1-(piperidin-1-yl)-butane-1,3-dione)-iron(III) Complex [Example 9] | 54 |
| Tris-(1-[4-(2-hydroxyethyl)piperazin-1-yl]butane-1,3-dione)-iron(III)-complex [Example 52] | 84 |
| Tris-(1-[4-(hydroxymethyl)piperidin-1-yl]butane-1,3-dione)-iron(III)-complex [Example 48] | 53 |
| Tris-(1-[(3S)-3-hydroxypyrrolidin-1-yl]butane-1,3-dione)-iron(III)-complex [Example 51] | 78 |
| Tris-(2-Fluoro-3-oxo-N-propylbutanamide)-iron(III)-complex [Example 23] | 88 |
| Tris-(2-Fluoro-N,N-dimethyl-3-oxobutanamide)-iron(II)-complex [Example 22] | 78 |
| Tris-(3-acetyl-1-methylpiperidin-2-one)-iron(III)-complex [Example 31] | 71 |
| Tris-(3-acetyl-1-methylpyrrolidin-2-one)-iron(III)-complex [Example 28] | 73 |
| Tris-(3-oxo-N,N-dipropylbutaneamide)-iron(III) Complex [Example 15] | 68 |
| Tris-(3-oxo-N-(propan-2-yl)butanamide)-iron(III)-complex [Example 36] | 79 |
| Tris-(3-oxobutaneamide)-iron(III) Complex [Example 1] | 61 |

| Substance | Utilization n 15 d (abs. %) |
| --- | --- |
| Tris-(4-Methoxy-1-(morpholin-4-yl)butane-1,3-dione)-iron(III)-complex [Example 27] | 88 |
| Tris-(4-Methoxy-N,N-dimethyl-3-oxobutanamide)-iron(III)-complex [Example 24] | 70 |
| Tris-(4-Methyl-1-(morpholin-4-yl)-pentane-1,3-dione)-iron(III)-complex [Example 26] | 64 |
| Tris-(Ethyl (1-methyl-2-oxopyrrolidin-3-yl)(oxo)acetate)-iron(III)-complex [Example 29] | 79 |
| Tris-(N,N,4-Trimethyl-3-oxopentanamide)-iron(III)-complex [Example 25] | 60 |
| Tris-(N,N-bis-(2-hydroxyethyl)-3-oxobutaneamide)-iron(III) Complex [Example 12] | 35 |
| Tris-(N,N-diethyl-3-oxobutaneamide)-iron(III) Complex [Example 2] | 41 |
| Tris-(N,N-dimethyl-3-oxobutaneamide)-iron(III) Complex [Example 3] | 95 |
| Tris-(N-(1-hydroxy-2-methylpropan-2-yl)-3-oxobutanamide)-iron(III)-complex [Example 41] | 68 |
| Tris-(N-(2,3-dihydroxypropyl)-3-oxobutanamide)-iron(III)-complex [Example 46] | 78 |
| Tris-(N-(2-Hydroxyethyl)-N,4-dimethyl-3-oxopentanamide)-iron(11)-complex [Example 65] | 73 |
| Tris-(N-(2-hydroxyethyl)-N-methyl-3-oxobutanamide)-iron(III)-complex [Example 42] | 30 |
| Tris-(N-(2-hydroxypropyl)-3-oxobutanamide)-iron(III)-complex [Example 43] | 75 |
| Tris-(N-(2-methoxyethyl)-3-oxobutanamide)-iron(III)-complex [Example 34] | 32 |
| Tris-(N-(3-hydroxypropyl)-3-oxobutanamide)-iron(III)-complex [Example 38] | 77 |
| Tris-(N-(3-hydroxypropyl)-N-methyl-3-oxobutanamide)-iron(III)-complex [Example 54] | 76 |
| Tris-(N-(4-hydroxybutyl)-3-oxobutanamide)-iron(III)-complex [Example 39] | 66 |
| Tris-(N-(morpholin-4-yl)-3-oxobutanamide)-iron(III)-complex [Example 60] | 80 |
| Tris-(N-(trans-4-hydroxycyclohexyl)-3-oxobutanamide)-iron(III)-complex [Example 55] | 84 |
| Tris-(N-Butyl-3-oxoheptanamide)-iron(III)-complex [Example 63] | 71 |
| Tris-(N-Cyclopropyl-3-oxobutanamide)-iron(III)-complex [Example 35] | 44 |
| Tris-(N-butyl-N-methyl-3-oxobutaneamide)-iron(ill) Complex [Example 13] | 71 |
| Tris-(N-hexyl-3-oxobutaneamide)-iron(III) Complex [Example 16] | 60 |
| Tris-(N-methyl-3-oxobutaneamide)-iron(III) Complex [Example 4] | 90 |
| Tris-(ethyl 4-(dimethylamino)-2,4-dioxobutanoate)-iron(III)-complex [Example 32] | 81 |
| Tris-(ethyl N-(3-oxobutanoyl)glycinate)-iron(l) complex (Tris((3-Oxo-butyrylamino)ethyl acetate)iron) [Example 20] | 77 |

Same assay, conditions: mouse, in vivo

| Substance | Utilization n 15 d (abs. %) |
| --- | --- |
| Tris-(2-chloro-N-methyl-3-oxobutaneamide)-iron(III) Complex [Example 6] | 57 |
| Tris-(N-(1-hydroxypropan-2-yl)-3-oxobutanamide)-iron(III)-complex [Example 44] | 73 |
| Tris-(N-(2-hydroxyethyl)-3-oxobutanamide)-iron(III)-complex [Example 37] | 34 |
| Tris-(N-(5-hydroxypentyl)-3-oxobutanamide)-iron(III)-complex [Example 40] | 87 |
